25 compounds from patent US20220267268A1, “NEW TRICYCLIC 5-HT2 ANTAGONISTS” (Anamar AB, priority 2019, published 2022) can be followed below.

What is called inhibition is the change of the read-out against control, counted positive when it falls.

Where a name gives a salt, the structure may show the parent alone. Marks after values point to notes of the source that are not given here.

Experiment [1] has as its target T1, 5-HT2B receptor (Homo sapiens, UniProt P41595).
T1 construct: host or cells: CHO-K1
Nature of the experiment: 5-HT2B receptor binding, ligand displacement assay with 3H-LSD radioligand. As to conditions: human receptor in CHO-K1; for inhibition at 0.001 µM: 1 nM compound; for inhibition at 0.01 µM: 10 nM compound; for inhibition at 0.1 µM: 100 nM compound. As for the experimental part: (§1) 5-HT2B receptor binding (performed at Eurofins Panlabs Taiwan, Ltd.) to human receptor protein expressed in CHO-K1 cells was determined in a ligand displacement assay using ^3H-lysergic acid diethylamide (LSD) as radioligand and ketanserine as a standard reference compound, or alternatively*, with ^3H-mesulergine and SB 206553 as reference. Data is presented as % displacement of radioligand at indicated compound concentrations, see Table 1.

The target in experiment [2] is T1, 5-HT2B receptor. Nature of the experiment: 5-HT2B receptor binding, ligand displacement assay, alternative (*) with 3H-mesulergine. As to conditions: * 3H-mesulergine radioligand, SB 206553 reference; for 5-HT2B receptor binding (% displacement) 1 nM: 1 nM compound; for inhibition at 0.01 µM: 10 nM compound; for 5-HT2B receptor binding (% displacement) 100 nM: 100 nM compound. As for the experimental part: as §1

T1 sequence (P41595 whole entry): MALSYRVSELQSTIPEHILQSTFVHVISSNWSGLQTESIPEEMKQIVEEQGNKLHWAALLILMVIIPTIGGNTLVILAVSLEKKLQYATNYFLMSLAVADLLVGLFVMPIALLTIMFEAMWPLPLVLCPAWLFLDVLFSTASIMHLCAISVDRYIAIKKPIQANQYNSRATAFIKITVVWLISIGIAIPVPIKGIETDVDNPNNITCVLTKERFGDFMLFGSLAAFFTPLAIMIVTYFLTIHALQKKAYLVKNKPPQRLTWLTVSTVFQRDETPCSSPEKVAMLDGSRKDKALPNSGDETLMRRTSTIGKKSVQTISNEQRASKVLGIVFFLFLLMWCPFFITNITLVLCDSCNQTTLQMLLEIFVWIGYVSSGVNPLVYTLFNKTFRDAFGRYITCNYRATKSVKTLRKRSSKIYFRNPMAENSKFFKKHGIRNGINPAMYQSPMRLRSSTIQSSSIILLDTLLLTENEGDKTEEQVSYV

Regarding `CC1CN(C(=N)N)c2ncc3ccccc3c21` (centres unmarked) [Example 4, 1-Methyl-1,2-dihydro-3H-pyrrolo[2,3-c]isoquinoline-3-carboximidamide hydrochloride], in experiment [1], the inhibition at 0.001 µM was -1%, the inhibition at 0.01 µM was determined as 16% and the inhibition at 0.1 µM was found to be 64%.
`CC1CN(C(=N)N)c2cnc3ccccc3c21` (centres unmarked) [Example 5, 1-Methyl-1,2-dihydro-3H-pyrrolo[2,3-c]quinoline-3-carboximidamide hydrochloride]: in experiment [1], the inhibition at 0.001 µM was determined as 11%, the inhibition at 0.01 µM amounted to 28% and the inhibition at 0.1 µM amounted to 71%.
Take `CNC(=N)N1CC(C)c2c1ccc1ccccc21` (centres unmarked) [Example 6, N,1-Dimethyl-1,2-dihydro-3H-benzo[e]indole-3-carboximidamide hydrochloride]: in experiment [1], the inhibition at 0.001 µM was 18%, the inhibition at 0.01 µM turned out to be 57% and the inhibition at 0.1 µM worked out at 93%.
With `CCCCNC(=N)N1CC(C)c2c1ccc1ccccc21` (centres unmarked) [Example 7, N-Butyl-1-methyl-1,2-dihydro-3H-benzo[e]indole-3-carboximidamide hydrochloride], in experiment [1], the inhibition at 0.001 µM came out at 32%, the inhibition at 0.01 µM is 77% and the inhibition at 0.1 µM is 96%.
As to `CC1CN(C(=N)NCc2ccccc2)c2ccc3ccccc3c21` (centres unmarked) [Example 8, N-Benzyl-1-methyl-1,2-dihydro-3H-benzo[e]indole-3-carboximidamide hydrochloride], in experiment [1], the inhibition at 0.001 µM turned out to be 30%, the inhibition at 0.01 µM amounted to 80% and the inhibition at 0.1 µM was 99%.
The like results for `CC1CN(C(=N)NCc2ccc(Cl)cc2)c2ccc3ccccc3c21` (centres unmarked) [Example 9, N-(4-Chlorobenzyl)-1-methyl-1,2-dihydro-3H-benzo[e]indole-3-carboximidamide hydrochloride] were, in that order, 26%, 55% and 95%.
For `CC1CN(C(=N)NCc2ccc(F)c(F)c2)c2ccc3ccccc3c21` (centres unmarked) [Example 10, N-(3,4-Difluorobenzyl)-1-methyl-1,2-dihydro-3H-benzo[e]indole-3-carboximidamide hydrochloride], in experiment [1], the inhibition at 0.001 µM is 7%, the inhibition at 0.01 µM came out at 50% and the inhibition at 0.1 µM turned out to be 91%.
`CCCCNC(=N)N1CC(C)c2c1ccc1c(Br)cccc21` (centres unmarked) [Example 15, 6-Bromo-N-butyl-1-methyl-1,2-dihydro-3H-benzo[e]indole-3-carboximidamide 2,2,2-trifluoroacetic acid salt]: the inhibition at 0.01 µM in experiment [1] came out at 103%.
On to `C#CCNC(=N)N1CC(C)c2c1ccc1c(Br)cccc21` (centres unmarked) [Example 18, 6-Bromo-1-methyl-N-(prop-2-yn-1-yl)-1,2-dihydro-3H-benzo[e]indole-3-carboximidamide 2,2,2-trifluoroacetic acid salt], for which the inhibition at 0.01 µM in experiment [1] was 104%.
On to `CC1CN(C(=N)NCC(F)(F)F)c2ccc3c(Br)cccc3c21` (centres unmarked) [Example 22, 6-Bromo-1-methyl-N-(2,2,2-trifluoroethyl)-1,2-dihydro-3H-benzo[e]indole-3-carboximidamide 2,2,2-trifluoroacetic acid salt], for which the inhibition at 0.01 µM in experiment [1] turned out to be 95%.
Same read-out and setting: for `COCCNC(=N)N1CC(C)c2c1ccc1c(Br)cccc21` (centres unmarked) [Example 23, 6-Bromo-N-(2-methoxyethyl)-1-methyl-1,2-dihydro-3H-benzo[e]indole-3-carboximidamide 2,2,2-trifluoroacetic acid salt] the value was 100%.
As for `CC1CN(C(=N)NCc2ccc(F)cc2)c2ccc3c(Br)cccc3c21` (centres unmarked) [Example 26, 6-Bromo-N-(4-fluorobenzyl)-1-methyl-1,2-dihydro-3H-benzo[e]indole-3-carboximidamide 2,2,2-trifluoroacetic acid salt], in experiment [1], the inhibition at 0.001 µM came to 43%, the inhibition at 0.01 µM was 90% and the inhibition at 0.1 µM amounted to 98%.
For `CC1CN(C(=N)Nc2ccc(F)cc2)c2ccc3c(Br)cccc3c21` (centres unmarked) [Example 30, 6-Bromo-N-(4-fluorophenyl)-1-methyl-1,2-dihydro-3H-benzo[e]indole-3-carboximidamide 2,2,2-trifluoroacetic acid salt], the inhibition at 0.01 µM in experiment [1] amounted to 105%.
As to `CC1CN(C(=N)N)c2ccc3c(I)cccc3c21` (centres unmarked) [Example 34, 6-Iodo-1-methyl-1,2-dihydro-3H-benzo[e]indole-3-carboximidamide 2,2,2-trifluoroacetic acid salt], in experiment [2], the “5-HT2B receptor binding (% displacement) 1 nM” value is 30* %, the inhibition at 0.01 µM was 88% and the “5-HT2B receptor binding (% displacement) 100 nM” value is given as 102* %.
Turning to `CC1CN(C(=N)N)c2ccc3c(C(F)(F)F)cccc3c21` (centres unmarked) [Example 35, 1-Methyl-6-(trifluoromethyl)-1,2-dihydro-3H-benzo[e]indole-3-carboximidamide 2,2,2-trifluoroacetic acid salt], in experiment [2], the “5-HT2B receptor binding (% displacement) 1 nM” value is listed as 21%, the inhibition at 0.01 µM is 52% and the “5-HT2B receptor binding (% displacement) 100 nM” value stood at 91%. Further, in experiment [1], the inhibition at 0.001 µM is 11%, the inhibition at 0.01 µM turned out to be 61% and the inhibition at 0.1 µM was determined as 92%.
Consider `COc1cccc2c3c(ccc12)N(C(=N)N)CC3C` (centres unmarked) [Example 36, 6-Methoxy-1-methyl-1,2-dihydro-3H-benzo[e]indole-3-carboximidamide 2,2,2-trifluoroacetic acid salt], for which, in experiment [2], the “5-HT2B receptor binding (% displacement) 1 nM” value is 10* %, the inhibition at 0.01 µM was determined as 48% and the “5-HT2B receptor binding (% displacement) 100 nM” value is recorded as 90* %.
For `CSc1cccc2c3c(ccc12)N(C(=N)N)CC3C` (centres unmarked) [Example 37, 1-Methyl-6-(methylthio)-1,2-dihydro-3H-benzo[e]indole-3-carboximidamide 2,2,2-trifluoroacetic acid salt] the same measures were 5* %, 53% and 94* %.
As for `CC1CN(C(=N)N)c2ccc3c([S+](C)[O-])cccc3c21` (centres unmarked) [Example 38, 1-Methyl-6-(methylsulfinyl)-1,2-dihydro-3H-benzo[e]indole-3-carboximidamide 2,2,2-trifluoroacetic acid salt], in experiment [2], the “5-HT2B receptor binding (% displacement) 1 nM” value is recorded as 4* %, the inhibition at 0.01 µM is 7% and the “5-HT2B receptor binding (% displacement) 100 nM” value is listed as 20* %.
For the compound `CC1CN(C(=N)N)c2ccc3c(S(C)(=O)=O)cccc3c21` (centres unmarked) [Example 39, 1-Methyl-6-(methylsulfonyl)-1,2-dihydro-3H-benzo[e]indole-3-carboximidamide 2,2,2-trifluoroacetic acid salt], in experiment [2], the “5-HT2B receptor binding (% displacement) 1 nM” value is reported as 6* %, the inhibition at 0.01 µM came to 8% and the “5-HT2B receptor binding (% displacement) 100 nM” value is 28* %.
For `C#Cc1cccc2c3c(ccc12)N(C(=N)N)CC3C` (centres unmarked) [Example 40, 6-Ethynyl-1-methyl-1,2-dihydro-3H-benzo[e]indole-3-carboximidamide 2,2,2-trifluoroacetic acid salt] the same measures were 26* %, 64% and 94* %.
For `CC1CN(C(=N)N)c2ccc3c(-c4ccccc4)cccc3c21` (centres unmarked) [Example 41, 1-Methyl-6-phenyl-1,2-dihydro-3H-benzo[e]indole-3-carboximidamide hydrochloride], in experiment [1], the inhibition at 0.001 µM came to 0%, the inhibition at 0.01 µM was 7% and the inhibition at 0.1 µM came out at 40%.
On to `CC1CN(C(=N)N)c2ccc3c(C4CC4)cccc3c21` (centres unmarked) [Example 42, 6-Cyclopropyl-1-methyl-1,2-dihydro-3H-benzo[e]indole-3-carboximidamide hydrochloride], for which, in experiment [1], the inhibition at 0.001 µM amounted to 1%, the inhibition at 0.01 µM came to 56% and the inhibition at 0.1 µM was 96%.
Take `CCCc1cccc2c3c(ccc12)N(C(=N)N)CC3C` (centres unmarked) [Example 43, 1-Methyl-6-propyl-1,2-dihydro-3H-benzo[e]indole-3-carboximidamide hydrochloride]: in experiment [1], the inhibition at 0.001 µM came out at 21%, the inhibition at 0.01 µM is 70% and the inhibition at 0.1 µM came out at 96%.
For the compound `COc1cc2c(c3ccccc13)C(C)CN2C(=N)N` (centres unmarked) [Example 44, 5-Methoxy-1-methyl-1,2-dihydro-3H-benzo[e]indole-3-carboximidamide hydrochloride], in experiment [1], the inhibition at 0.001 µM came out at 9%, the inhibition at 0.01 µM came out at 13% and the inhibition at 0.1 µM turned out to be 70%.
In the case of `CC1CN(C(=N)N)c2cc(F)c3c(Cl)cccc3c21` (centres unmarked) [Example 45, 6-Chloro-5-fluoro-1-methyl-1,2-dihydro-3H-benzo[e]indole-3-carboximidamide hydrochloride], in experiment [1], the inhibition at 0.001 µM came to 77%, the inhibition at 0.01 µM was determined as 100% and the inhibition at 0.1 µM was found to be 98%.
